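Five concentrations, 48 hours, 96-well plates. The concentration for 50% growth inhibition is given as GI50. The concentration for full growth arrest is given as TGI.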
Columns and labels:
Experiment in all cases: NCI-60 cell line screen, 48 h
[1] = system: MALME-3M melanoma
[2] = system: RXF 393 renal
[3] = system: HCT-116 colon
[4] = system: EKVX NSCLC
[5] = system: MDA-MB-435
[6] = system: KM12 colon
[7] = system: MOLT-4 leukemia
[8] = system: SK-MEL-28 melanoma
[9] = system: PC-3 prostate
[10] = system: SK-MEL-5 melanoma
[11] = system: HT29 colon
[12] = system: UACC-257 melanoma
[13] = system: SNB-75 CNS
[14] = system: HOP-92 NSCLC
[15] = system: DU-145 prostate
[16] = system: NCI-H460 lung
[17] = system: SF-268 CNS
[18] = system: LOX IMVI melanoma
[19] = system: CAKI-1 renal
[20] = system: SW-620 colon
[21] = system: OVCAR-3 ovarian
[22] = system: K-562 leukemia
[23] = system: BT-549 breast
[24] = system: TK-10 renal
[25] = system: UO-31 renal
[26] = system: SF-295 CNS
[27] = system: UACC-62 melanoma
[28] = system: OVCAR-5 ovarian
[29] = system: A549 NSCLC
[30] = system: COLO 205 colon
[31] = system: A498 renal
[32] = system: MDA-MB-231 breast
[33] = system: SK-OV-3 ovarian
[34] = system: NCI-H226 lung
[35] = system: SN12C renal
[36] = system: SNB-19 CNS
[37] = system: OVCAR-8 ovarian
[38] = system: OVCAR-4 ovarian
[39] = system: SK-MEL-2 melanoma
[40] = system: NCI-H23 lung
[41] = system: HS 578T breast
[42] = system: ACHN renal
[43] = system: 786-0 renal
[44] = system: NCI/ADR-RES ovarian
[45] = system: CCRF-CEM leukemia
[46] = system: HCT-15 colon
[47] = system: SF-539 CNS
[48] = system: IGROV1 ovarian
[49] = system: HOP-62 NSCLC
[50] = system: U251 CNS
[51] = system: HL-60(TB) leukemia
[52] = system: RPMI-8226 leukemia
[53] = system: T-47D breast
[54] = system: SR leukemia
[55] = system: M14 melanoma
[56] = system: MCF7 breast
[57] = system: NCI-H522 lung

COc1ccc2c(c1)OCC1c3cc(O)ccc3OC21 (stereo not given)
GI50 [1]: 60.2 µM | TGI [1]: > 100 µM | GI50 [2]: 72.6 µM | TGI [2]: > 100 µM | GI50 [3]: 51.4 µM | TGI [3]: > 100 µM | GI50 [4]: 27.8 µM | TGI [4]: > 100 µM | GI50 [5]: 44.8 µM | TGI [5]: > 100 µM | GI50 [6]: 38.7 µM | TGI [6]: > 100 µM | GI50 [7]: 35.4 µM | TGI [7]: > 100 µM | GI50 [8]: > 100 µM | TGI [8]: > 100 µM | GI50 [9]: 34.4 µM | TGI [9]: > 100 µM | GI50 [10]: 33 µM | TGI [10]: > 100 µM | GI50 [11]: 47.5 µM | TGI [11]: > 100 µM | GI50 [12]: 78.3 µM | TGI [12]: > 100 µM | GI50 [13]: 34 µM | TGI [13]: > 100 µM | GI50 [14]: 39.6 µM | TGI [14]: > 100 µM | GI50 [15]: 75.8 µM | TGI [15]: > 100 µM | GI50 [16]: 25 µM | TGI [16]: > 100 µM | GI50 [17]: 11 µM | TGI [17]: 74 µM | GI50 [18]: 42.1 µM | TGI [18]: > 100 µM | GI50 [19]: 32.5 µM | TGI [19]: > 100 µM | GI50 [20]: > 100 µM | TGI [20]: > 100 µM | GI50 [21]: 27 µM | TGI [21]: > 100 µM | GI50 [22]: 63.5 µM | TGI [22]: > 100 µM | GI50 [23]: 39 µM | TGI [23]: > 100 µM | GI50 [24]: 38.9 µM | TGI [24]: > 100 µM | GI50 [25]: 24.3 µM | TGI [25]: > 100 µM | GI50 [26]: 9.91 µM | TGI [26]: 90.9 µM | GI50 [27]: 35.9 µM | TGI [27]: > 100 µM | GI50 [28]: 39.5 µM | TGI [28]: > 100 µM | GI50 [29]: 60.9 µM | TGI [29]: > 100 µM | GI50 [30]: 32.7 µM | TGI [30]: > 100 µM | GI50 [31]: 40.2 µM | TGI [31]: > 100 µM | GI50 [32]: 13.7 µM | TGI [32]: 92.2 µM | GI50 [33]: 63.2 µM | TGI [33]: > 100 µM | GI50 [34]: 18.6 µM | TGI [34]: > 100 µM | GI50 [35]: 73.3 µM | TGI [35]: > 100 µM | GI50 [36]: 52.1 µM | TGI [36]: > 100 µM | GI50 [37]: > 100 µM | TGI [37]: > 100 µM | GI50 [38]: 28.1 µM | TGI [38]: > 100 µM | GI50 [39]: > 100 µM | TGI [39]: > 100 µM | GI50 [40]: 30.1 µM | TGI [40]: > 100 µM | GI50 [41]: 41.2 µM | TGI [41]: > 100 µM | GI50 [42]: 35.8 µM | TGI [42]: > 100 µM | GI50 [43]: 78.9 µM | TGI [43]: > 100 µM | GI50 [44]: 33.2 µM | TGI [44]: > 100 µM | GI50 [45]: 25.1 µM | TGI [45]: > 100 µM | GI50 [46]: 40.6 µM | TGI [46]: > 100 µM | GI50 [47]: 54.5 µM | TGI [47]: > 100 µM | GI50 [48]: 36 µM | TGI [48]: 99.4 µM | GI50 [49]: > 100 µM | TGI [49]: > 100 µM | GI50 [50]: 54.9 µM | TGI [50]: > 100 µM | GI50 [51]: 3.16 µM | TGI [51]: 27.3 µM | GI50 [52]: 32.8 µM | TGI [52]: > 100 µM | GI50 [53]: 16.2 µM | TGI [53]: 65.4 µM | GI50 [54]: 46.3 µM | TGI [54]: > 100 µM | GI50 [55]: 72.5 µM | TGI [55]: > 100 µM | GI50 [56]: 12.8 µM | TGI [56]: 86.4 µM

O=C(CSc1nccc(=O)[nH]1)c1ccccc1
TGI [1]: > 100 µM | TGI [2]: > 100 µM | TGI [3]: > 100 µM | TGI [4]: > 100 µM | TGI [5]: > 100 µM | TGI [6]: > 100 µM | TGI [7]: > 100 µM | TGI [8]: > 100 µM | TGI [9]: > 100 µM | TGI [10]: > 100 µM | TGI [11]: > 100 µM | TGI [12]: > 100 µM | TGI [13]: > 100 µM | TGI [14]: > 100 µM | TGI [15]: > 100 µM | TGI [16]: > 100 µM | TGI [17]: > 100 µM | TGI [18]: > 100 µM | TGI [19]: > 100 µM | TGI [20]: > 100 µM | TGI [21]: > 100 µM | TGI [22]: > 100 µM | TGI [23]: > 100 µM | TGI [24]: > 100 µM | TGI [25]: > 100 µM | TGI [26]: > 100 µM | TGI [57]: > 100 µM | TGI [27]: > 100 µM | TGI [28]: > 100 µM | TGI [29]: > 100 µM | TGI [30]: > 100 µM | TGI [32]: > 100 µM | TGI [33]: > 100 µM | TGI [35]: > 100 µM | TGI [36]: > 100 µM | TGI [37]: > 100 µM | TGI [38]: > 100 µM | TGI [39]: > 100 µM | TGI [40]: > 100 µM | TGI [41]: > 100 µM | TGI [42]: > 100 µM | TGI [43]: > 100 µM | TGI [44]: > 100 µM | TGI [46]: > 100 µM | TGI [47]: > 100 µM | TGI [48]: > 100 µM | TGI [49]: > 100 µM | TGI [50]: > 100 µM | TGI [51]: > 100 µM | TGI [53]: > 100 µM | TGI [54]: > 100 µM | TGI [55]: > 100 µM | TGI [56]: > 100 µM

CC(C)(OCc1ccccc1)c1ccccc1P(c1ccccc1)c1ccccc1
TGI [1]: > 100 µM | TGI [2]: > 100 µM | TGI [3]: > 100 µM | TGI [4]: 91.2 µM | TGI [5]: > 100 µM | TGI [6]: 58 µM | TGI [7]: 84.5 µM | TGI [8]: > 100 µM | TGI [9]: > 100 µM | TGI [10]: > 100 µM | TGI [11]: > 100 µM | TGI [12]: > 100 µM | TGI [13]: > 100 µM | TGI [14]: > 100 µM | TGI [15]: > 100 µM | TGI [16]: > 100 µM | TGI [17]: > 100 µM | TGI [19]: > 100 µM | TGI [20]: > 100 µM | TGI [21]: > 100 µM | TGI [22]: > 100 µM | TGI [23]: > 100 µM | TGI [24]: > 100 µM | TGI [25]: > 100 µM | TGI [26]: > 100 µM | TGI [57]: > 100 µM | TGI [27]: > 100 µM | TGI [28]: > 100 µM | TGI [29]: > 100 µM | TGI [30]: > 100 µM | TGI [31]: > 100 µM | TGI [32]: > 100 µM | TGI [33]: > 100 µM | TGI [34]: > 100 µM | TGI [35]: > 100 µM | TGI [36]: > 100 µM | TGI [37]: > 100 µM | TGI [38]: > 100 µM | TGI [39]: > 100 µM | TGI [40]: 94 µM | TGI [41]: > 100 µM | TGI [42]: > 100 µM | TGI [43]: > 100 µM | TGI [44]: > 100 µM | TGI [46]: > 100 µM | TGI [47]: > 100 µM | TGI [48]: > 100 µM | TGI [49]: > 100 µM | TGI [50]: > 100 µM | TGI [51]: 62.9 µM | TGI [52]: 22.8 µM | TGI [53]: > 100 µM | TGI [54]: > 100 µM | TGI [55]: > 100 µM | TGI [56]: > 100 µM
